For one series, the system named is MRSA. Kind of series: MIC, 96-well CAMHB, 10^5 to 10^2 CFU/mL in 24 hours. It counts as cell-based, Staphylococcus aureus. The conditions noted are these: for MIC: Staphylococcus aureus, MRSA, read-out: MIC (MRSA). The method, then: (§1) To determine the MIC of polyamine compounds, the protocol described herein was used.
In brief, a 0.5 McFarland of each bacterial isolate was made. A 0.5 McFarland is a measure of turbidity in a liquid sample that contains approximately 1×10^∧8 CFU/mL. The 0.5 McFarland standard was diluted in cation adjusted Mueller Hinton Broth (CAMHB), and 50 μL of broth were added to a well of a 96-well plate. In addition, 50 μL of CAMHB that contained a desired concentration of antimicrobial were also added to the well for a final volume of 100 μL and a final concentration of approximately 5×10^4 CFU/well (which equated to approximately 5×10^5 CFU/mL). Each well contained a desired amount of polyamine compound in order to experimentally determine the MIC. Each 96-well plate was incubated at 37° C. for 24 hours. The contents of each well were plated on tryptic soy agar (TSA). TSA plates were incubated for 37° C. for 24 hours after which the number of CFU were counted and used to calculate the CFU/mL that remained after exposure to varying concentrations of compound. This procedure was repeated n=8 times for each concentration of antimicrobial. […]

The test system of the next series is P. aeruginosa. The series is described as above. The following applies: for MIC: Pseudomonas aeruginosa. It counts as cell-based, Pseudomonas aeruginosa. As to the method:
as §1
In brief, a 0.5 McFarland of each bacterial isolate was made. A 0.5 McFarland is a measure of turbidity in a liquid sample that contains approximately 1×10^∧8 CFU/mL. The 0.5 McFarland standard was diluted in cation adjusted Mueller Hinton Broth (CAMHB), and 50 μL of broth were added to a well of a 96-well plate. In addition, 50 μL of CAMHB that contained a desired concentration of antimicrobial were also added to the well for a final volume of 100 μL and a final concentration of approximately 5×10^4 CFU/well (which equated to approximately 5×10^5 CFU/mL). Each well contained a desired amount of polyamine compound in order to experimentally determine the MIC. Each 96-well plate was incubated at 37° C. for 24 hours. The contents of each well were plated on tryptic soy agar (TSA). TSA plates were incubated for 37° C. for 24 hours after which the number of CFU were counted and used to calculate the CFU/mL that remained after exposure to varying concentrations of compound. This procedure was repeated n=8 times for each concentration of antimicrobial.

In the next series the test system is L-929 cells (ATCC CCL-1). Kind of series: Minimal Essential Media (MEM) Elution cytotoxicity test. It counts as cell-based. The following applies: Table 10A. As to the method: Summary: The Minimal Essential Media (MEM) Elution test was designed to determine the cytotoxicity of extractable substances. The test article was added to cell monolayers and incubated. The cell monolayers were examined and scored based on the degree of cellular destruction.
Acceptance Criteria: The United States Pharmacopeia & National Formulary (USP <87>) states that the test article meets the requirements, or receives a passing score (Pass) if the reactivity grade is not greater than grade 2 or a mild reactivity.
Acceptance criteria were based upon the negative and media controls receiving “0” reactivity grades and positive controls receiving a 3-4 reactivity grades (moderate to severe).
The cell monolayers were examined microscopically. The wells were scored as to the degree of discernable morphological cytotoxicity on a relative scale of 0 to 4:
The results from the three wells were averaged to give a final cytotoxicity score.
[…] This initial concentration was then diluted 1: 2, 1:4, 1:8, and 1:16. Multiple well cell culture plates were seeded with a verified quantity of industry standard L-929 cells (ATCC CCL-1) and incubated until approximately 80% confluent. The test articles and control extracts were added to the cell monolayers in triplicate. The cells were incubated at 37±1° C. with 5±1% CO2 for 48±3 hours.

[1] abbreviates: Table 5, read-out: MIC (P. aeruginosa).
Where [2] appears, read: read-out: MIC (P. aeruginosa), Table 5.

Converted amounts (≈) assume the structure as drawn. Counter-ions that a name gives are not always drawn. Like-named read-outs stand apart in the source and are kept apart here.

Turning to `NCCCCCCCCCCCCNCc1cc(CNCCCCCCCCCCCCN)cc(-c2ccccc2)c1` [CZ-115, N^1,N^1′-([1,1′-biphenyl]-3,5-diylbis(methylene))bis(dodecane-1,12-diamine)], the MIC with MRSA (Table 5) and in the series on P. aeruginosa (setting [1]) was < 50 µM in each case.
Regarding `CC(C)(C)OC(=O)NCCCNCCCNCc1cc(CNCCCNCCCN)cc(CNCCCNCCCN)c1` [CZ-51, tert-butyl (3-((3-((3,5-bis(((3-((3-aminopropyl)amino)propyl)amino)methyl)-benzyl)amino)propyl)amino)propyl)carbamate], the minimum inhibitory concentration (MIC) in the series on MRSA (Table 5) and in the series on P. aeruginosa (setting [1]) was < 50 µM each time.
Regarding `CC(C)Oc1ccc(-c2cc(CNCCCNCCCN)cc(CNCCCNCCCN)c2)cc1CNCCCNCCCN` [CZ-66, N^1,N^1′,N^1″-((4′-isopropoxy-[1,1′-biphenyl]-3,3′,5-triyl)tris(methylene))-tris(N^3-(3-aminopropyl)propane-1,3-diamine), hydrochloride salt], the “Results Pass/Fail” value in the series with L-929 cells (ATCC CCL-1) (25 μg/mL) was “Fail (a numerical grade greater than 2 is considered a cytotoxic effect, or a failing score (Fail))”; with L-929 cells (ATCC CCL-1) (dilution 1:2 of 25 μg/mL) it was “Fail (a numerical grade greater than 2 is considered a cytotoxic effect, or a failing score (Fail))”; with L-929 cells (ATCC CCL-1) (dilution 1:4 of 25 μg/mL) it was “Pass (receives a passing score (Pass) if the reactivity grade is not greater than grade 2 or a mild reactivity)”; with L-929 cells (ATCC CCL-1) (dilution 1:8 of 25 μg/mL), “Pass (receives a passing score (Pass) if the reactivity grade is not greater than grade 2 or a mild reactivity)”; with L-929 cells (ATCC CCL-1) (dilution 1:16 of 25 μg/mL) it was “Pass (receives a passing score (Pass) if the reactivity grade is not greater than grade 2 or a mild reactivity)”.
Turning to `CCCCCCNCCCNCCCNCc1cccc(CNCCCNCCCNCCCCCC)c1` [CZ-113, N^1,N^1′-(1,3-phenylenebis(methylene))bis(N^3-(3-(hexylamino)propyl)propane-1,3-diamine)], the MIC in the series on MRSA (Table 5) and in the series on P. aeruginosa (setting [1]) was < 50 µM in each case.
With `NCCCNCCCNCc1cc(CNCCCNCCCN)cc(-c2cc(C(F)(F)F)cc(C(F)(F)F)c2)c1` [CZ-70, N^1,N^1′-((3′,5′-bis(trifluoromethyl)-[1,1′-biphenyl]-3,5-diyl)bis(methylene))bis(N^3-(3-aminopropyl)propane-1,3-diamine), hydrochloride salt], the MIC in the series with MRSA and with P. aeruginosa (setting [2]) was < 50 µM in each case.
Regarding `CC(C)CNCCCNCCCNCc1cc(CNCCCNCCCNCC(C)C)cc(OCc2ccccc2)c1` [CZ-106, N^1,N^1′-((5-(benzyloxy)-1,3-phenylene)bis(methylene))bis(N^3-(3-(isobutylamino)propyl)propane-1,3-diamine)], the MIC with MRSA (Table 5) is < 50 µM; in the series with P. aeruginosa (setting [1]), 50 to 100 µM (≈ 29.1 to 58.3 µg/mL).
For `CC(C)Oc1cc(CNCCCNCCCN)cc(CNCCCNCCCN)c1` [CZ-93, N^1,N^1′-((5-isopropoxy-1,3-phenylene)bis(methylene))bis(N^3-(3-aminopropyl)propane-1,3-diamine)], in that order: < 50 µM and < 50 µM.
For `O=C1NCCCN1CCCNCc1cc(CNCCCN2CCCNC2=O)cc(-c2ccccc2)c1` [CZ-89, 1,1′-((([1,1′-biphenyl]-3,5diylbis(methylene))bis(azanediyl))bis(propane-3,1-diyl))bis(tetrahydropyrimidin-2(1H)-one)], in that order: < 50 µM and < 50 µM.
As to `NCCCNCCCNCc1cc(CNCCCNCCCN)cc(-c2ccc(F)cc2)c1` [CZ-75, N^1,N^1′-((4′-fluoro-[1,1′-biphenyl]-3,5-diyl)bis(methylene))bis(N3-(3-aminopropyl)propane-1,3-diamine), hydrochloride salt], the MIC in the series with MRSA and in the series with P. aeruginosa (setting [2]) was < 50 µM each time.
On to “N^1,N^1′,N^1″-((4′-(trifluoromethyl)-[1,1′-biphenyl]-3,3′,5-triyl)tris(methylene))tris(N3-(3-aminopropyl)propane-1,3-diamine), hydrochloride salt [CZ-69]”, for which, in the series with MRSA (Table 5), the “MIC (MRSA)” value is “+++ (+++ = 50 μM > MIC. MIC results of “>n μM” or “<n μM” will also be designated as +++ if n <50.)”. In addition, the “MIC (P. aeruginosa)” value against P. aeruginosa (Table 5) is on record as “+++ (+++ = 50 μM > MIC. MIC results of “>n μM” or “<n μM” will also be designated as +++ if n <50.)”.
Regarding `NCCCNCCCNCc1cc(CNCCCNCCCN)cc(Oc2ccccc2)c1` [CZ-74, N^1,N^1′-((5-phenoxy-1,3-phenylene)bis(methylene))bis(N^3-(3-aminopropyl)propane-1,3-diamine), hydrochloride salt], the minimum inhibitory concentration (MIC) with MRSA and in the series on P. aeruginosa (setting [2]) was < 50 µM throughout.
On to `CC(C)CNCCCNCCCNCc1cc(CNCCCNCCCNCC(C)C)cc(-c2cnn(C)c2)c1` [CZ-102, N^1,N^1′-((5-(1-methyl-1H-pyrazol-4-yl)-1,3-phenylene)bis(methylene))bis(N3-(3-(isobutylamino)propyl)propane-1,3-diamine)], for which the MIC with MRSA (Table 5) is < 50 µM; in the series with P. aeruginosa (setting [1]), 50 to 100 µM (≈ 27.8 to 55.7 µg/mL).
`NCCCNCCCNCc1cc(CNCCCNCCCN)cc(OCC2CCCCC2)c1` [CZ-101, N^1,N^1′-((5-(cyclohexylmethoxy)-1,3-phenylene)bis(methylene))bis(N^3-(3-aminopropyl)propane-1,3-diamine), hydrochloride salt]: the MIC with MRSA and with P. aeruginosa (setting [2]) was < 50 µM throughout.
As for `CC(C)CNCCCNCC(C)(C)CNCc1cc(CNCC(C)(C)CNCCCNCC(C)C)cc(-c2ccccc2)c1` [CZ-112, N^1,N^1′-([1,1′-biphenyl]-3,5-diylbis(methylene))bis(N^3-(3-(isobutylamino)propyl)-2,2-dimethylpropane-1,3-diamine)], the MIC with MRSA (Table 5) and in the series with P. aeruginosa (setting [1]) was < 50 µM each time.
As to `NCCCNCCCNCc1cccc(CNCCCNCCCN)c1` [CZ-42], the “MIC (MRSA)” value against MRSA (Table 5) is “++ (++ = 100 μM ≥ MIC ≥ 50 μM. MIC results of “>n μM” or “<n μM” will also be designated as ++ if 100 ≥ n ≥ 50.)”. In addition, the minimal inhibitory concentration (MIC) in the series with P. aeruginosa (setting [1]) was 50 to 100 µM (≈ 18.2 to 36.5 µg/mL).
As to `CC(C)CNCCCCCCCCCCCCNCc1cccc(-c2cc(CNCCCCCCCCCCCCNCC(C)C)cc(CNCCCCCCCCCCCCNCC(C)C)c2)c1` [CZ-117, N^1,N^1′,N^1″-([1,1′-biphenyl]-3,3′,5-triyltris(methylene))tris(N^12-isobutyldodecane-1,12-diamine)], the MIC with MRSA (Table 5) and in the series with P. aeruginosa (setting [1]) was < 50 µM throughout.
For the compound `NCCCCCCCCCCCCNCc1ccccc1` [CZ-5, N^1-benzyldodecane-1,12-diamine, hydrochloride salt], the MIC with MRSA was > 100 µM.
On to `NCCCCNCc1ccccc1` [CZ-3, N^1-benzylbutane-1,4-diaminium chloride], for which, in the series on P. aeruginosa (setting [2]), the MIC is > 100 µM.
Consider `CC(C)(C)OC(=O)NCCCNCCCNCc1cccc(CNCCCNCCCNC(=O)OC(C)(C)C)c1` [CZ-27, di-tert-butyl (((((1,3-phenylenebis(methylene))bis(azanediyl))bis(propane-3,1-diyl))bis(azanediyl))bis(propane-3,1-diyl))dicarbamate], for which, in the series on MRSA (Table 5), the MIC was > 100 µM.
Consider `NCCCNCCCNCc1cc(CO)cc(CNCCCNCCCN)c1` [CZ-53, (3,5-bis(((3-((3-aminopropyl)amino)propyl)amino)methyl)phenyl)-methanol, hydrochloride salt], for which the “MIC (P. aeruginosa)” value against P. aeruginosa (Table 5) is “++ to +++”.
On to `CN(C)CCCCCCCCCCCCN(C)Cc1ccccc1` [CZ-10, N^1-Benzyl-N^1,N^12,N^12-trimethyldodecane-1,12-diamine, hydrochloride salt], for which the minimal inhibitory concentration (MIC) with MRSA was > 100 µM.
As for `NCCCNCCCNCc1cccc(CNCCCNCCCN)c1` [CZ-25 (Bz)], the MIC in the series with MRSA (Table 5) was < 50 µM.
In the case of `NCCCCCCNCc1ccccc1` [CZ-9, N^1-benzylhexane-1,6-diamine, hydrochloride salt], in the series with MRSA, the MIC was > 100 µM.
On to `NCCCNC(=O)c1cccc(C(=O)NCCCN)c1` [CZ-41], for which the MIC with MRSA (Table 5) was > 100 µM.

By MIC is commonly meant the smallest concentration in the dilution series that meets the test's criterion for growth inhibition.

These data come from US10440955B2, “Methods comprising a biocidal polyamine” (Curza Global, LLC, priority 2013, dated 2019).
